Results published in US8895738B2, “Mesoionic pyrido [1, 2-A] pyrimidine pesticides” (E I du Pont de Nemours and Company, priority 2010, dated 2014).
Counter-ions that a name gives are not always drawn.

Tested on: cotton melon aphid (Aphis gossypii)
Assay: Test C: control of cotton melon aphid on cotton plant, contact and/or systemic
Assay type: in vivo
Description: For evaluating control of cotton melon aphid (Aphis gossypii) through contact and/or systemic means, the test unit consisted of a small open container with a 6-7-day-old cotton plant inside. This was pre-infested with 30-40 insects on a piece of leaf according to the cut-leaf method described for Test B, and the soil of the test unit was covered with a layer of sand.
Test compounds were formulated and sprayed at 250 and/or 50 ppm as described for Test B. The applications were replicated three times. After spraying, the test units were maintained in a growth chamber and then visually rated as described for […].

What does the source list for `O=c1c(-c2cccc(C(F)(F)F)c2)c([O-])[n+](Cc2cncnc2)c2ccccn12` [Compound 3, 2-hydroxy-4-oxo-1-(5-pyrimidinylmethyl)-3-[3-(trifluoromethyl)phenyl]-4H-pyrido[1,2-a]pyrimidinium inner salt]?
mortality at 50 ppm (sprayed at 50 ppm): ≥ 80%; mortality at 250 ppm (sprayed at 250 ppm): ≥ 80%
